Measured values from patent publication US10781204B2, “TYK2 inhibitors and uses thereof” (Nimbus Lakshmi, Inc., priority 2015, dated 2020).
pEC50, pKi: −log10 of the molar value.

Columns and labels:
TYK2 = TYK2 (Homo sapiens (Human), UniProt P29597); experiment: Tyk2 radioactive kinase assay; format: biochemical; conditions: ATP 10 μM
Method: (§1) Peptide substrate, [KKSRGDYMTMQIG], (20 μM) is prepared in reaction buffer (20 mM Hepes pH 7.5, 10 mM MgCl2, 1 mM EGTA, 0.02% Brij35, 0.02 mg/mL BSA, 0.1 mM […], 2 mM DTT, 1% DMSO. TYK2 (Invitrogen) kinase is added, followed by compounds in DMSO. ^33PATP is added to initiate the reaction with ATP at 10 μM. Kinase reaction is incubated for 120 min at room temp and reactions are spotted onto P81 ion exchange paper (Whatman #3698-915), and then washed extensively in 0.75% phosphoric acid, prior to reading the radioactivity counts. For JAK2 (Invitrogen) kinase assay the peptide substrate poly[Glu:Tyr] (4:1), 0.2 mg/ml is used, in the reaction carried out the same as for TYK2.

[1] = tested on: JAK2-pSTAT5 (GM-CSF induced pSTAT5); experiment: GM-CSF induced pSTAT5 in human PBMC; format: cell-based; conditions: Homo sapiens, PBMC, 20 min, 5 ng/mL GM-CSF
Method: (§2) Human PBMC are isolated from buffy coat and are stored frozen for assays as needed. Cells for assay are thawed and resuspended in complete media containing serum, then cells are diluted to 1.67 E6 cells/ml so that 120 ul per well is 200,000 cells. 15 ul of compound or DMSO is added to the well at the desired concentrations and incubated at 1 hr at 37 C. 15 ul of stimulus (final concentration of 1.7 ng/mL IL-12) is added for 30 minutes prior to pSTAT4 and total STAT4 analysis using cell lysates prepared and analyzed by MSD reagents as per manufacturer protocol. The final DMSO concentration of compound in the assay is 0.1%.
Cells are prepared for analysis as in the above procedure and 15 ul of GM-CSF (final concentration 5 ng/mL) is added for 20 minutes prior to pSTAT5 and total STAT5 analysis using cell lysates prepared and analyzed by MSD reagents as per manufacturer protocol. The final DMSO concentration of compound in the assay is 0.1%.

JAK2 = JAK2 (Homo sapiens (Human), UniProt O60674); experiment: JAK2 radioactive kinase assay; format: biochemical; conditions: ATP 10 μM
Sequence of JAK2 (O60674 whole entry): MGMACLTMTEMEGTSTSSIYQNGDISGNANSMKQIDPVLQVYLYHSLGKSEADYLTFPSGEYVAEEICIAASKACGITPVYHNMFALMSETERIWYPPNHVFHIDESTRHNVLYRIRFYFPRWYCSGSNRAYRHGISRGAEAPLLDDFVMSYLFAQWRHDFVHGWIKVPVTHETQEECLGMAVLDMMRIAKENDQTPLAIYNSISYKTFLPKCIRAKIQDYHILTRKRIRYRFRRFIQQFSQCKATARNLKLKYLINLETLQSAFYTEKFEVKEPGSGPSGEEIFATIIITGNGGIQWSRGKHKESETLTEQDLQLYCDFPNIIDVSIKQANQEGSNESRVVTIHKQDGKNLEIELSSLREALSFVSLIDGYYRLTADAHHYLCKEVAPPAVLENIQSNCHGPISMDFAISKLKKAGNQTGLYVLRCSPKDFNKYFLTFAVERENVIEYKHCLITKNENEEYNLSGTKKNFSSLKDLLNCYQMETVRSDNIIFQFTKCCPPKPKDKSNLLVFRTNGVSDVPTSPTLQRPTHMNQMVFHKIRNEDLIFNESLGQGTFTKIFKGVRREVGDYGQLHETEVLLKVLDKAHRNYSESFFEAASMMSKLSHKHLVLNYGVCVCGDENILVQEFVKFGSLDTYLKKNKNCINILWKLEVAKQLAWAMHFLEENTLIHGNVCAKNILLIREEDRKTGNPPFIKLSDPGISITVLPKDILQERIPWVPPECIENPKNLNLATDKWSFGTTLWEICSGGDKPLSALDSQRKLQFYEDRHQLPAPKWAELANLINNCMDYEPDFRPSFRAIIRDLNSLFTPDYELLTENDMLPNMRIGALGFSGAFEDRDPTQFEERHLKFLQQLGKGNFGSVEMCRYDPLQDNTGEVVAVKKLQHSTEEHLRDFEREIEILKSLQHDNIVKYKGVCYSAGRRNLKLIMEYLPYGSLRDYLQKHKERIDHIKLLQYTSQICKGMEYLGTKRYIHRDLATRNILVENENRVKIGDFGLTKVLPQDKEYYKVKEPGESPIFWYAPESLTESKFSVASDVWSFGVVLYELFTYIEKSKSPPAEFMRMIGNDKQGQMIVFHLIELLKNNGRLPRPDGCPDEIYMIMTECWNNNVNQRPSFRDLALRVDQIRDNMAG
Method: as §1

[2] = tested on: Tyk2-pSTAT4 (IL-12 induced pSTAT4); experiment: IL-12 induced pSTAT4 in human PBMC; format: cell-based; conditions: Homo sapiens, PBMC, 0.5 h, 1.7 ng/mL IL-12, 30 minutes
Method: as §2

Sequence of TYK2 (P29597 whole entry): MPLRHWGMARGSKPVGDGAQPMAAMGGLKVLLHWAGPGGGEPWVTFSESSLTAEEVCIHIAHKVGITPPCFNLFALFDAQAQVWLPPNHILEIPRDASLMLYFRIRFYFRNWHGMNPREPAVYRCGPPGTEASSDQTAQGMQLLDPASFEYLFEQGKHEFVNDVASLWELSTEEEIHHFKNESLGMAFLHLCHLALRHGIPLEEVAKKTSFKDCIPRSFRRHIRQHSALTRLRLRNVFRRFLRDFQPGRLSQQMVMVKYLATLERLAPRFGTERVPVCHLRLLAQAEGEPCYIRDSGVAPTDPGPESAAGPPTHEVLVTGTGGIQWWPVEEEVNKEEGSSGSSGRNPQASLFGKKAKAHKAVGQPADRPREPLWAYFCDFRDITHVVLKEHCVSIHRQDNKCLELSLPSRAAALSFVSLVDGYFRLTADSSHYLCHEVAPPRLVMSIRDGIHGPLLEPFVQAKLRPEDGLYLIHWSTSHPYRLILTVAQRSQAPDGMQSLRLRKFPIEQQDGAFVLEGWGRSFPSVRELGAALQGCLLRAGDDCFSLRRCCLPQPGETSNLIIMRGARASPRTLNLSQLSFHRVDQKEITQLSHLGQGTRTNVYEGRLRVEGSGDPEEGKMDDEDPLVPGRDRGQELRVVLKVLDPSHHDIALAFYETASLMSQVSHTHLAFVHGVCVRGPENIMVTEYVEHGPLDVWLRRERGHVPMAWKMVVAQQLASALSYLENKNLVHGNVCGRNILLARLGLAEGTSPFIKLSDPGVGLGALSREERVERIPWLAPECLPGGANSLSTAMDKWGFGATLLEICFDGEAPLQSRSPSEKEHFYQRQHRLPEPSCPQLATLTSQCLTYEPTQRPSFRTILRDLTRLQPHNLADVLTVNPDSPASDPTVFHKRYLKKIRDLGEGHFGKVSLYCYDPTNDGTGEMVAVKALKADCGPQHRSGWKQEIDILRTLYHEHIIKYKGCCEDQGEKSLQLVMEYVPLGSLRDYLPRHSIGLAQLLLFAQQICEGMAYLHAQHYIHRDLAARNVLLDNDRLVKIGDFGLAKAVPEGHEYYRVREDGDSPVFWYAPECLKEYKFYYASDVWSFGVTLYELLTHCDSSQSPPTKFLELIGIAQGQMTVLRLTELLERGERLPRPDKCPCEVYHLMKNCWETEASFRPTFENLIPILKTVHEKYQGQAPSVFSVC

SMILES: N#Cc1cccc(F)c1-c1cc(-n2cc3c(n2)CC(C(N)=O)CN3)c2c(n1)CNC2=O (stereo not drawn) [I-180, 2-(2-(2-cyano-6-fluorophenyl)-5-oxo-6,7-dihydro-5H-pyrrolo-[3,4-b]pyridin-4-yl)-4,5,6,7-tetrahydro-2H-pyrazolo[4,3-b]pyridine-6-carboxamide]
- pKi (TYK2): 8.00 to 10.00
- pEC50 [1]: < 5.70
- pKi (JAK2): 7.00 to 8.00

SMILES: CC1(C#N)CCCN(c2ccn(-c3cc(-c4c(F)cccc4C#N)nc4c3C(=O)NC4)n2)C1 (stereo not drawn) [I-133, 1-(1-(2-(2-cyano-6-fluorophenyl)-5-oxo-6,7-dihydro-5H-pyrrolo[3,4-b]pyridin-4-yl)-1H-pyrazol-3-yl)-3-methylpiperidine-3-carbonitrile]
- pKi (TYK2): 8.00 to 10.00
- pEC50 [1]: < 5.70
- pKi (JAK2): 8.00 to 10.00

SMILES: CC1(C)COC(c2ccn(-c3cc(-c4c(F)cccc4C#N)nc4c3C(=O)NC4)n2)=N1 [I-60, 2-(4-(3-(4,4-dimethyl-4,5-dihydrooxazol-2-yl)-1H-pyrazol-1-yl)-5-oxo-6,7-dihydro-5H-pyrrolo[3,4-b]pyridin-2-yl)-3-fluorobenzonitrile]
- pKi (TYK2): 8.00 to 10.00
- pEC50 [1]: < 5.70
- pKi (JAK2): 7.00 to 8.00

SMILES: CCNC(=O)c1ccn(-c2cc(-c3c(F)cccc3F)nc3c2C(=O)NC3)n1 [I-3, 1-(2-(2,6-difluorophenyl)-5-oxo-6,7-dihydro-5H-pyrrolo[3,4-b]pyridin-4-yl)-N-ethyl-1H-pyrazole-3-carboxamide]
- pKi (TYK2): 8.00 to 10.00
- pEC50 [1]: < 5.70
- pKi (JAK2): 6.00 to 7.00

SMILES: N#Cc1cccc(F)c1-c1cc(-n2ccc(C3CCCO3)n2)c2c(n1)CNC2=O (stereo not drawn) [I-101, 3-fluoro-2-(5-oxo-4-(3-(tetrahydrofuran-2-yl)-1H-pyrazol-1-yl)-6,7-dihydro-5H-pyrrolo[3,4-b]pyridin-2-yl)benzonitrile]
- pKi (TYK2): 8.00 to 10.00
- pEC50 [1]: < 5.70
- pKi (JAK2): 7.00 to 8.00

SMILES: N#Cc1cccc(F)c1-c1cc(-c2cc3n(n2)CC(O)CN3)c2c(n1)CNC2=O (stereo not drawn) [I-235, 3-fluoro-2-(4-(6-hydroxy-4,5,6,7-tetrahydropyrazolo[1,5-a]pyrimidin-2-yl)-5-oxo-6,7-dihydro-5H-pyrrolo[3,4-b]pyridin-2-yl)benzonitrile]
- pKi (TYK2): 8.00 to 10.00
- pEC50 [1]: < 5.70
- pKi (JAK2): 8.00 to 10.00

SMILES: N#Cc1cccc(F)c1-c1cc(-n2ccc(N3CC[C@@H](C#N)C3)n2)c2c(n1)CNC2=O [I-127, (R)-1-(1-(2-(2-cyano-6-fluorophenyl)-5-oxo-6,7-dihydro-5H-pyrrolo[3,4-b]pyridin-4-yl)-1H-pyrazol-3-yl)pyrrolidine-3-carbonitrile]
- pKi (TYK2): 8.00 to 10.00
- pKi (JAK2): 7.00 to 8.00
- pEC50 [2]: 7.00 to 7.52

SMILES: [2H]C1([2H])N(c2ccn(-c3cc(-c4c(F)cccc4C#N)nc4c3C(=O)NC4)n2)C([2H])([2H])C([2H])(O)C1([2H])[2H] (stereo not drawn) [I-194, 3-fluoro-2-(4-(3-(3-hydroxypyrrolidin-1-yl-2,2,3,4,4,5,5-d7)-1H-pyrazol-1-yl)-5-oxo-6,7-dihydro-5H-pyrrolo[3,4-b]pyridin-2-yl)benzonitrile]
- pKi (TYK2): 8.00 to 10.00
- pKi (JAK2): 8.00 to 10.00
- pEC50 [2]: 5.70 to 7.00

SMILES: N#Cc1cccc(F)c1-c1cc(-n2ccc(N3CC[C@H](C#N)C3)n2)c2c(n1)CNC2=O [I-128, (S)-1-(1-(2-(2-cyano-6-fluorophenyl)-5-oxo-6,7-dihydro-5H-pyrrolo[3,4-b]pyridin-4-yl)-1H-pyrazol-3-yl)pyrrolidine-3-carbonitrile]
- pKi (TYK2): 8.00 to 10.00
- pKi (JAK2): 7.00 to 8.00
- pEC50 [2]: 7.00 to 7.52

SMILES: N#Cc1cccc(F)c1-c1cc(-n2ccc(N3CC[C@@](O)(C(=O)N4CCCC4)C3)n2)c2c(n1)CNC2=O [I-197, (S)-3-fluoro-2-(4-(3-(3-hydroxy-3-(pyrrolidine-1-carbonyl)-pyrrolidin-1-yl)-1H-pyrazol-1-yl)-5-oxo-6,7-dihydro-5H-pyrrolo[3,4-b]pyridin-2-yl)benzonitrile]
- pKi (TYK2): 8.00 to 10.00
- pKi (JAK2): 7.00 to 8.00
- pEC50 [2]: 5.70 to 7.00

SMILES: CC(C)n1cc(-c2cc(-c3c(F)cccc3C#N)nc3c2C(=O)NC3)cn1 [I-61, 3-fluoro-2-(4-(1-isopropyl-1H-pyrazol-4-yl)-5-oxo-6,7-dihydro-5H-pyrrolo[3,4-b]pyridin-2-yl)benzonitrile]
- pKi (TYK2): 8.00 to 10.00
- pKi (JAK2): 7.00 to 8.00
- pEC50 [2]: 5.70 to 7.00

SMILES: N#Cc1cccc(F)c1-c1cc(-n2ccc(N3CCCC(N)C3)n2)c2c(n1)CNC2=O (stereo not drawn) [I-68, 2-(4-(3-(3-aminopiperidin-1-yl)-1H-pyrazol-1-yl)-5-oxo-6,7-dihydro-5H-pyrrolo[3,4-b]pyridin-2-yl)-3-fluorobenzonitrile]
- pKi (TYK2): 8.00 to 10.00
- pEC50 [1]: < 5.70
- pKi (JAK2): 7.00 to 8.00

SMILES: O=C1NCc2nc(-c3c(F)cccc3F)cc(-n3ccc(N4CCC5(CCOCC5)CC4)n3)c21 [I-9, 4-(3-(3-oxa-9-azaspiro[5.5]undecan-9-yl)-1H-pyrazol-1-yl)-2-(2,6-difluorophenyl)-6,7-dihydro-5H-pyrrolo[3,4-b]pyridin-5-one]
- pKi (TYK2): 8.00 to 10.00
- pEC50 [1]: < 5.70
- pKi (JAK2): 6.00 to 7.00

SMILES: N#Cc1cccc(F)c1-c1cc(-n2cc3c(n2)CCCN3)c2c(n1)CNC2=O [I-77, 3-fluoro-2-(5-oxo-4-(4,5,6,7-tetrahydro-2H-pyrazolo[4,3-b]pyri-din-2-yl)-6,7-dihydro-5H-pyrrolo[3,4-b]pyridin-2-yl)benzonitrile]
- pKi (TYK2): 8.00 to 10.00
- pKi (JAK2): 7.00 to 8.00
- pEC50 [2]: 7.00 to 7.52

SMILES: CC1CC(O)CC(C)N1c1ccn(-c2cc(-c3c(F)cccc3C#N)nc3c2C(=O)NC3)n1 (stereo not drawn) [I-85, 3-fluoro-2-(4-(3-(4-hydroxy-2,6-dimethylpiperidin-1-yl)-1H-pyrazol-1-yl)-5-oxo-6,7-dihydro-5H-pyrrolo[3,4-b]pyridin-2-yl)benzonitrile]
- pKi (TYK2): 7.00 to 8.00
- pEC50 [1]: < 5.70
- pKi (JAK2): ≤ 6.00

SMILES: N#Cc1cccc(F)c1-c1cc(-n2ccc(N3CC[C@@H](O)[C@@H](O)C3)n2)c2c(n1)CNC2=O [I-105, 2-(4-(3-((3S,4R)-3,4-dihydroxypiperidin-1-yl)-1H-pyrazol-1-yl)-5-oxo-6,7-dihydro-5H-pyrrolo[3,4-b]pyridin-2-yl)-3-fluorobenzonitrile]
- pKi (TYK2): 8.00 to 10.00
- pKi (JAK2): 7.00 to 8.00
- pEC50 [2]: 5.70 to 7.00

SMILES: N#Cc1cccc(F)c1-c1cc(-n2ccc(N3CC[C@@H](F)[C@@H](O)C3)n2)c2c(n1)CNC2=O [I-173, 3-fluoro-2-(4-(3-((3S,4R)-4-fluoro-3-hydroxypiperidin-1-yl)-1H-pyrazol-1-yl)-5-oxo-6,7-dihydro-5H-pyrrolo[3,4-b]pyridin-2-yl)benzonitrile]
- pKi (TYK2): 10.00 to 11.05
- pEC50 [1]: < 5.70
- pKi (JAK2): 8.00 to 10.00

SMILES: N#Cc1cccc(F)c1-c1cc(-n2ccc(C3CCOCC3)n2)c2c(n1)CNC2=O [I-16, 3-fluoro-2-(5-oxo-4-(3-(tetrahydro-2H-pyran-4-yl)-1H-pyrazol-1-yl)-6,7-dihydro-5H-pyrrolo[3,4-b]pyridin-2-yl)benzonitrile]
- pKi (TYK2): 8.00 to 10.00
- pEC50 [1]: < 5.70
- pKi (JAK2): 6.00 to 7.00

SMILES: N#Cc1cccc(F)c1-c1cc(-n2ccc(N3CCCC(O)(C(F)(F)F)C3)n2)c2c(n1)CNC2=O (stereo not drawn) [I-80, 3-fluoro-2-(4-(3-(3-hydroxy-3-(trifluoromethyl)piperidin-1-yl)-1H-pyrazol-1-yl)-5-oxo-6,7-dihydro-5H-pyrrolo[3,4-b]pyridin-2-yl)benzonitrile]
- pKi (TYK2): 8.00 to 10.00
- pEC50 [1]: < 5.70
- pKi (JAK2): 7.00 to 8.00

SMILES: N#Cc1cccc(F)c1-c1cc(-n2cc3c(n2)NCCC3)c2c(n1)CNC2=O [I-75, 3-fluoro-2-(5-oxo-4-(4,5,6,7-tetrahydro-2H-pyrazolo[3,4-b]pyridin-2-yl)-6,7-dihydro-5H-pyrrolo[3,4-b]pyridin-2-yl)benzonitrile]
- pKi (TYK2): 8.00 to 10.00
- pEC50 [1]: < 5.70
- pKi (JAK2): 8.00 to 10.00

SMILES: C[C@]1(O)CCN(c2ccn(-c3cc(-c4c(F)cccc4C#N)nc4c3C(=O)NC4)n2)C1 [I-93, (S)-3-fluoro-2-(4-(3-(3-hydroxy-3-methylpyrrolidin-1-yl)-1H-pyrazol-1-yl)-5-oxo-6,7-dihydro-5H-pyrrolo[3,4-b]pyridin-2-yl)benzonitrile]
- pKi (TYK2): 8.00 to 10.00
- pKi (JAK2): 7.00 to 8.00
- pEC50 [2]: 7.00 to 7.52

SMILES: N#Cc1cccc(F)c1-c1cc(-n2ccc(N3CCC(F)C(O)C3)n2)c2c(n1)CNC2=O (stereo not drawn) [I-160, 3-fluoro-2-(4-(3-(4-fluoro-3-hydroxypiperidin-1-yl)-1H-pyrazol-1-yl)-5-oxo-6,7-dihydro-5H-pyrrolo[3,4-b]pyridin-2-yl)benzonitrile]
- pKi (TYK2): 10.00 to 11.05
- pKi (JAK2): 8.00 to 10.00
- pEC50 [2]: 7.00 to 7.52

SMILES: CO[C@H]1CCN(c2ccn(-c3cc(-c4c(F)cccc4C#N)nc4c3C(=O)NC4)n2)C[C@@]1(C)O [I-229, 3-fluoro-2-(4-(3-((3R,4S)-3-hydroxy-4-methoxy-3-methylpiperi-din-1-yl)-1H-pyrazol-1-yl)-5-oxo-6,7-dihydro-5H-pyrrolo[3,4-b]pyridin-2-yl)benzonitrile]
- pKi (TYK2): 10.00 to 11.05
- pKi (JAK2): 7.00 to 8.00
- pEC50 [2]: 5.70 to 7.00
